Data published in ChEMBL document CHEMBL1139416, “Synthesis of a C-glucosylated cyclopropylamide and evaluation as a glycogen phosphorylase inhibitor” (Bioorg Med Chem Lett, 2008).
The source made the active and inactive calls. The rule behind the calls is not given here.

Assays:
Oryctolagus cuniculus [1] = species: Oryctolagus cuniculus; assay: Inhibition of rabbit muscle glycogen phosphorylase b at 625 uM
Oryctolagus cuniculus [2] = species: Oryctolagus cuniculus; assay: Inhibition of rabbit muscle glycogen phosphorylase b at 2.5 mM

Activity (Oryctolagus cuniculus [1]): inactive
inhibition (Oryctolagus cuniculus [2]): 16%
SMILES: O=C(NC1([C@@H]2O[C@H](CO)[C@@H](O)[C@H](O)[C@H]2O)CC1)c1ccccc1
